The subject of data set [1] is Sporobolomyces odorus. Briefly: Biomass production (OD at 620 nm) of S. odorus cultures on distilling slops with added precursor or additives. The following applies: for Biomass (OD at 620 nm): culture period of 77 hours; for OD at 620 nm: measured after 77 hours, 0 ml: 8.74; for OD620: HNCH 5 g/vial, culture period of 150 hours. In kind it is cell-based. The protocol: During these culture processes, performed in a liquid medium, temperature was held at 24° C. and stirring was at 250 rpm (revolutions per minute).
Time dependency of the amount of biomass produced during cultivation of this yeast, was tracked by measuring the optical density (OD) of the cell suspension at 620 nm. On the spectrophotometer, 0 was obtained with a sample of pure medium (baseline).
In order to test the effect of adding methyl ricinoleate to cultures of S. odorus on distilling slops exclusively, 1 ml of this precursor was added to cellular suspensions of 60 ml of 24 hours of age. […] Indeed, instead of a final concentration, after 77 hours, of 1.02 mg/l on distilling slops or of 6.47 mg/l when castor oil was added, we obtained concentrations of 28.23 mg/l (FIG. 8). […] So it would become rapidly a limiting factor in obtaining free ricinoleic acid from castor oil. Adding directly usable methyl ricinoleate overcomes this problem and lactone production yields are improved.
In order to optimize the added amount of methyl ricinoleate, we produced cultures to which we added after 24 hours either 0.83%, or 1.66%, or 10% (v/v) of methyl ricinoleate.
Additions of RM were performed at instants t=0, 24, 48 and 72 hours. These cultures were produced in 250 ml erlenmeyers containing 5 g of HNCH and 60 ml of sown distilling slops at an initial yeast cell density of 0.2 units of OD620 (optical density measured at 620 nm).
With the aim of increasing the productivity of the system by implementing an in situ extraction of γ-decalactone, two series of tests were conducted; one at an initial cell density of 0.2 (control), the other at an initial cell density of 4.

Data set [2] has as its system Sporobolomyces odorus. Briefly: Toxicity of γ-decalactone: yeast growth kinetics on distilling slop medium containing lactone. The format is cell-based. As to the method:
Time dependency of the amount of biomass produced during cultivation of this yeast, was tracked by measuring the optical density (OD) of the cell suspension at 620 nm. On the spectrophotometer, 0 was obtained with a sample of pure medium (baseline). In order to determine whether γ-decalactone is toxic for cells, yeast growth kinetics on a distilling slop medium containing either 50 mg/l or 250 mg/l of lactone were obtained (FIG. 11). […] Beyond this point, a shift was observed. […] Indeed, the maximum achieved OD was 4 instead of 15 in the control. This same phenomenon was already observed by Ferron and al. (1996) who determined that the compatible dose with a non-zero cell growth rate is between 100 and 200 mg/l. This would partly explain why lactone concentrations of 250 to 300 mg/l were not exceeded under the retained experimental conditions.

For `CCCCCC[C@@H](O)C/C=C\CCCCCCCC(=O)OC` [methyl ricinoleate], the “Biomass (OD at 620 nm)” value stood at 8.4 in data set [1] (0.06% at t = 0 hrs + 0.83% at t = 24 hrs) and 8.0 in data set [1] (0.83% v/v at t = 24 hrs). In addition, the “OD at 620 nm” value was determined as 8.00 in data set [1] (0.5 ml RM added to 60 ml culture after 24 hours), 7.94 in data set [1] (1 ml RM added to 60 ml culture after 24 hours) and 8.98 in data set [1] (6 ml RM added to 60 ml culture after 24 hours). Also, the “biomass, OD” value in data set [1] (1 ml added to 60 ml cultures of 24 hours of age, after 77 hours, 14.0 on distilling slops exclusively) came to 11.06. In addition, the OD620 in data set [1] (4×0.03, 0.06 or 0.12% (v/v) of precursor) is on record as 8; in data set [1] (4×0.18% (v/v) of precursor), 15.

For the compound `CCCCCCC1CCC(=O)O1` (stereo not shown) [γ-decalactone], the “effect on the yeast's growth” value in data set [2] (50 mg/l lactone in distilling slop medium, first 50 hours of culture) is “did not affect the yeast's growth”. In addition, the microorganism growth result in data set [2] (250 mg of lactone in distilling slop medium) is recorded as “significantly reduced”. Also, the “maximum achieved OD” value in data set [2] (250 mg of lactone, control 15) is listed as 4. In addition, in data set [2] (statement in section C 1.1), the “toxicity exerted on yeast above (concentration)” value is “above 150 mg/l”. Also, the “toxic effect observed beyond (concentration)” value in data set [2] (summary statement of section 6) is more than 250 mg/L.

Values taken from patent publication US6518050B1, “Process for producing and extracting aromatic compounds” (Revico, priority 1998, dated 2003).
